# Test results as given in patent publication US20040116346A1, “Affinity small molecules for the EPO receptor” (priority 2002, published 2004).
# Tests used:
# [1] = test system: EPO-Receptor down stream signaling pathway in TF-1 or UT-7 cells; experiment: In vitro signaling (EPO-R activation); type: cell-based
# Method: UT-7 cells were grown in Minimal Essential Medium Alpha (MEM-α) containing 20% FBS, 1.5 g/L NaHCO3, 5 ng/ml GM-CSF, and 100U Penicillin/100 ug/ml Streptomycin Sulfate (“P/S”), in T150 flasks (60 ml/flask) at 37° C., 5% CO2 to a density of no more than 5×10^5 cells/ml. The cells were starved overnight in MEM-α containing 10% FBS, 1.5 g/L NaHCO3 and P/S in T150 flasks (60ml/flask) at a density of 5×10^5 cells/ml, in 5% CO2, 37° C. The cells were then centrifuged in a swinging-bucket rotor at 200×g for 5 minutes at room temperature. The supernatant was removed, and the cells pooled into one 50 ml conical tube. The cells were washed twice with serum-free medium (MEM-alpha containing 1.5 g/L NaHCO3 and P/S). After the last wash, the cells were resuspended to a density of 1×10^7 cells/ml in serum-free medium. The cells were then placed in 15 ml conical tubes in 1 ml aliquots and incubated with the caps loosened for 1 hour at 37° C., 5% CO2. Every 10 minutes, the lower portion of each tube was tapped (flicked) several times to prevent the cells from settling (please note, this step is very important!)
# It was also observed that EPO-R was phosphorylated when stimulated with non-peptide EPO-R modulators. (See FIG. 4) […]
# [2] = test system: Mouse or human bone marrow cells; experiment: Formation of erythroid colonies (CFU-e, BFU-e) from bone marrow in methylcellulose; type: cell-based; conditions: mouse and human bone marrow
# Method: Mouse or human bone marrow cells were stimulated in methylcellulose for 7 days (mouse) or 14 days (human) with non-peptide EPO-R modulators. Formation of erythroid colonies was observed. (See FIGS. 6 to 8)
# (1) Dilute human bone marrow 1:1 with sterile PBS. (2) Slowly layer bone marrow into 50 ml tubes containing 20 ml of LSM Lymphocyte separation medium (ICN/Cappel—cat #50494). 50 ml bone marrow will yield 2 tubes. (3) Spin tubes at 2000 rpm for 30 minutes with brake off. (4) Slowly take out the middle layer using a 10 ml pipette and transfer into a new 50 ml tube. (5) Add PBS +0.5% BSA +5 mM EDTA to tube for washing. (6) Spin tube for 5 minutes at speed 4 with brake on. (7) Repeat wash step 2 more times. (8) After 3rd wash, resuspend pellet in SF Iscoves' MDM medium. (9) Count by diluting cells in 3% acetic acid. (10) Dilute cells to desired concentration (5×10^5 cells/ml) and seed onto methylcellulose.
# (1) Tubes containing 3.0 ml of methylcellulose medium (Stemcell Technology, cat #H4230) supplemented with 50 ng/ml hSCF are prepared. (Alternatively the methylcellulose could be supplemented with 50 ng/ml hSCF, 20 ng/ml of hIL-3 and hIL-6). (2) Compounds or EPO of desired concentrations are added to the tubes. […] Colonies are scored on day twelve.
# Bone marrow cells were isolated from mouse femurs. […] The colonies were scored on day seven. […]
smiles,measurement,setting,value
Cc1ccc(Cl)cc1Nc1nc2nc(C)c(NCC3CC3)cn2n1 [Compound E5],activation of EPO-R,[1],activation of EPO-R
same,CFU-e formation compared with EPO,[2],stimulate CFU-e formation to the same extent as EPO
